Measured values: US11147799B2, “Topical pharmaceutical composition containing phenytoin and a (co-) analgesic for the treatment of chronic pain” (Topical Innovations B.V., priority 2016, dated 2021)
“Also recorded” adds a separate entry of the source.

Tests used:
[1] = after oral administration; corresponding tissue; cited from earlier work
neuropathic pain [2] = experiment: Earlier oral medication of the case patients (case histories); conditions: case history of the individual patient
neuropathic pain [3] = conditions: 21% for placebo; cited from earlier work

| SMILES | pain relieving effect of earlier oral medication (words) (neuropathic pain [2]) | side effects of earlier oral medication (neuropathic pain [2]) | further results |
| --- | --- | --- | --- |
| O=C(O)Cc1ccccc1Nc1c(Cl)cccc1Cl [diclofenac] |  |  | Cmax of diclofenac in muscles [1]: 1160 ng/mL |
| CN(C)CCC=C1c2ccccc2CCc2ccccc21 [Amitriptyline] | did not have any pain relieving effect |  |  |
| COc1ccc(C(CN(C)C)C2(O)CCCCC2)cc1 (centres unmarked) [venlafaxine] |  | induced nausea |  |
| CC(C)C[C@H](CN)CC(=O)O [pregabalin] | without sufficient pain reduction; also recorded: had a pain reducing effect | anxiety and depression; also recorded: too much side effects | pain relieving effect of earlier oral medication (words) (neuropathic pain [2]; listed as Pregabalin): did not have any effect |
| NCC1(CC(=O)O)CCCCC1 [gabapentin] |  | too much side effects | patients who achieved 50% or more pain relief (neuropathic pain [3]): about 35% |
